Experimental data published in US20180036332A1 (Chongqing Institute of Bench-to Bed Bioengineering …, priority 2015, published 2018).

Legend:
[1] = tested on: primary endothelial cells HUVEC; assay: MTT cell viability assay of primary endothelial cells HUVEC in low glucose and hypoxia environment; assay type: cell-based; settings: 48 hours
[2] = parameters: species or system rats; settings: rat, in vivo

Nicotinamide adenine dinucleotide phosphate [NADPH]
survival rate of HUVEC cells ([1]; 5 μM NADPH, p<0.05): around 65.3% | survival rate of HUVEC cells ([1]; 10 μM NADPH, p<0.01): around 73.6% | survival rate of HUVEC cells ([1]; 20 μM NADPH, p<0.01): around 70.9% | range of myocardial infarction (weight % of ischemic infarct zone in total ischemic myocardial zone) [2]: significantly reduces the range of myocardial infarction
